This is an account of results in ChEMBL document CHEMBL1150659, “Pachyclavulariaenones D-G, new diterpenoids from the soft coral Pachyclavularia violacea” (2002).

In one test the test system is P-388 (Mus musculus). In words: Cytotoxicity against mouse P-388 cells. As to conditions: read-out: ED50 (the source's name).
In the next test the test system is HT-29. In words: Cytotoxicity against human HT-29 cells. Type of test: functional.
The next test relates to A549. In words: Cytotoxicity against human A549 cells. Type of test: functional.
The next test deals with P388. In words: Cytotoxicity against mouse P388 cells. Type of test: functional, cell-based.

SMILES strings stand for the structures. Values after ≈ are worked out from the molar mass of the structure shown.

Consider `CC1=CC(=O)[C@H]2[C@H]3[C@@H]1[C@@H]1C[C@@](C)(O)[C@H](O)C[C@@H](O)[C@](C)(OC[C@@H]2C)[C@H]3O1` [PACHYCLAVULARIAENONE G], for which the EC50 with P-388 (Mus musculus) came out at 0.2 µg/mL (≈ 0.546 µM); in the test on HT-29 (read-out: ED50 (the source's name)), 3.2 µg/mL (≈ 8.73 µM).

With `CC(=O)O[C@@H]1C[C@@H](O)[C@]2(C)OC[C@H](C)[C@H]3C(=O)C=C(C)[C@@H]4[C@H]3[C@@H]2O[C@H]4C[C@@]1(C)O`, the Activity entry in the test with A549 and with HT-29 was “Not toxic” throughout.

As to `CC1=CC(=O)[C@H]2[C@H]3[C@@H]1[C@@H]1C/C(C)=C\C[C@@H](O)[C@](C)(OC[C@@H]2C)[C@H]3O1`, the Activity entry in the test with A549, in the test with HT-29 and with P388 was “Not toxic” each time.

Take `CC(=O)O[C@@H]1C[C@@H](OC(C)=O)[C@](C)(O)C[C@@H]2O[C@H]3[C@@H]4[C@H]2C(C)=CC(=O)[C@@H]4[C@@H](C)CO[C@@]13C`: the Activity result with A549 and in the test on HT-29 was “Not toxic” throughout.
